Assay results reported in ChEMBL document CHEMBL3886864, “Heterocyclic resorcinol derivatives, preparation of same and cosmetic uses thereof” (2016).

What follows are molecules tested against T1, Polyphenol oxidase 1 (Agaricus bisporus, UniProt Q00024) (assay: Inhibition Assay: Reader: Synergy HT program: tyrosinase 280-490 kinetics: kinetics over 45 minutes, reading at t=10 minutes, Tests in transparent 96-well plates, Phosphate buffer (pH 6.8), Enzyme: mushroom tyrosinase (T-3824, Sigma), Substrate: L-tyrosine (T-3754, Sigma), Positive control: Kojic acid (KA) (60890, Fluka) (reference inhibitor). Reference Molecules for the Test: Kojic acid: …).
T1 sequence (Q00024 whole entry): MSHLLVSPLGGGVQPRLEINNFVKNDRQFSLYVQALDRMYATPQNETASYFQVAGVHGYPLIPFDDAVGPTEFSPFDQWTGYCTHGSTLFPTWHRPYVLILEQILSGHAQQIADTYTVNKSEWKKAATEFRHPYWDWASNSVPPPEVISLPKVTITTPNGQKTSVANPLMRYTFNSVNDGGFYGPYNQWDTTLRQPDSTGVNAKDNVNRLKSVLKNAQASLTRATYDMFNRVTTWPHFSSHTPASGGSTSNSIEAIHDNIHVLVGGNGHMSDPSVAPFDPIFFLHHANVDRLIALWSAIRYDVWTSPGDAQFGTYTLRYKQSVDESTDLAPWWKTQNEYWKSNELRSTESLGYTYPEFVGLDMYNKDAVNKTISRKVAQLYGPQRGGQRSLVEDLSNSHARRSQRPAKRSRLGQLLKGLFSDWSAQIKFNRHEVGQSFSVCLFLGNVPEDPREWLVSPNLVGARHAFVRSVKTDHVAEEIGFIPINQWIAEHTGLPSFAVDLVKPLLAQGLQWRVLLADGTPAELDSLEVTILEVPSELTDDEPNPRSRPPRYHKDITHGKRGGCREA

**Q.** With `CC(c1cccnc1)c1ccc(O)cc1O` (stereo unspecified) as the molecule, how does the IC50 read?
**A.** Its IC50 is 200 nM.

**Q.** `CC(c1cccs1)c1ccc(O)cc1O` (stereo unspecified) was tested. Which IC50 did it give?
**A.** Its IC50 is 90 nM.

**Q.** `CC(c1ccccn1)c1ccc(O)cc1O` (stereo unspecified) was tested. Which IC50 did it give?
**A.** The IC50 was 400 nM.

**Q.** How did the IC50 turn out when `CC(c1ccsc1)c1ccc(O)cc1O` (stereo unspecified) was run?
**A.** The IC50 was 80 nM.

**Q.** Which IC50 does the source give for `CC(c1nccs1)c1ccc(O)cc1O` (stereo unspecified) here?
**A.** Its IC50 is 1500 nM.

**Q.** How did the IC50 turn out when `CCCCc1ccc(O)cc1O` [RUCINOL] was run?
**A.** Its IC50 is 1000 nM.
